Results from article PMC9120017, “Inhibition mechanism of the chloride channel TMEM16A by the pore blocker 1PBC” (Nature Communications, 2022).
Like-named read-outs stand apart in the source and are kept apart here.

Biological target: T1, wild-type mouse TMEM16A (Mus musculus, UniProt Q8BHY3)
T1 construct: expressed in transfected cells; host or cells: HEK293T
T1 sequence (Q8BHY3 1-960): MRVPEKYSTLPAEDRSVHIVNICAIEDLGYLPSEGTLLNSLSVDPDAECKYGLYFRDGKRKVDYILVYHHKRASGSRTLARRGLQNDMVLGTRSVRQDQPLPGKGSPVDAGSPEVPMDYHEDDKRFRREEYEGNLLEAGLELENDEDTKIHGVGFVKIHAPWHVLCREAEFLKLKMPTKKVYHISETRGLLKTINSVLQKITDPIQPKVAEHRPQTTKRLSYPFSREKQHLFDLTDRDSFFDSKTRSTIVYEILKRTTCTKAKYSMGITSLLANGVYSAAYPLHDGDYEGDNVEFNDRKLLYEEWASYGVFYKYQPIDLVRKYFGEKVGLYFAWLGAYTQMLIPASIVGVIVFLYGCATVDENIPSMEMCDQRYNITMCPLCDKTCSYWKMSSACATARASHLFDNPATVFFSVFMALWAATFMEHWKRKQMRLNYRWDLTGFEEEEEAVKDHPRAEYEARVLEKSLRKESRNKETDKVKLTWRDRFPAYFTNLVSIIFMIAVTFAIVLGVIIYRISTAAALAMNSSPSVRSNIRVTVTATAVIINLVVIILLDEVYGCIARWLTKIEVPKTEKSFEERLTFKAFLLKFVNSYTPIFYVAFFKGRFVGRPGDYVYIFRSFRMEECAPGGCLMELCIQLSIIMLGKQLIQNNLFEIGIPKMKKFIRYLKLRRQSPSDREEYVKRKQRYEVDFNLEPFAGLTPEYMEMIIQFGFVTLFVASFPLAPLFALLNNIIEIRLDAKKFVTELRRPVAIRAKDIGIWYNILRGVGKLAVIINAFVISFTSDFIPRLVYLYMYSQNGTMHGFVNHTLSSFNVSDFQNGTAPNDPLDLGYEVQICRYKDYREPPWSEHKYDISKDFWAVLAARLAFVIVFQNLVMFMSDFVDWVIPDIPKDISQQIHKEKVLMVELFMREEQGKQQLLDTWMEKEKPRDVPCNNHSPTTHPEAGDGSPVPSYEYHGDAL
Assay: Inside-out patch recording of 1PBC block, wild-type TMEM16A
Assay type: cell-based
Conditions: for remaining activity at 10 µM / remaining activity at 30 µM / remaining activity at 100 µM: read-out: I/Imax
Experimental: HEK293T cells (ATCC CRL-1573) were maintained in Dulbecco’s modified Eagle’s medium (DMEM; Sigma-Aldrich) supplemented with 10 U ml^−1 penicillin, 0.1 mg ml^−1 streptomycin (Sigma-Aldrich), 2 mM L-glutamine (Sigma-Aldrich), and 10% FBS (Sigma-Aldrich) in a humidified atmosphere containing 5% CO2 at 37 °C. HEK293S GnTI^− cells (ATCC CRL-3022) were maintained in HyClone HyCell TransFx-H medium (GE Healthcare) supplemented with 10 U ml^−1 penicillin, 0.1 mg ml^−1 streptomycin, 4 mM L-glutamine, 0.15% poloxamer 188 (Sigma-Aldrich), and 1% FBS in an atmosphere containing 5% CO2 at 185 rpm at 37 °C. The ac splice variant of mouse TMEM16A (UniProt ID: Q8BHY3), mouse TMEM16B (UniProt ID: Q8CFW1), or mouse TMEM16F (UniProt ID: Q6P9J9) bearing a 3C cleavage site, a Venus YFP, a Myc tag, and a Streptavidin-binding peptide (SBP) downstream of the open reading frame in a modified pcDNA3.1 vector (Invitrogen) were used as described previously[21],[31]. Mutations were introduced using a modified QuikChange method[58] and were verified by sequencing.
HEK293T cells were transfected with 3–4 μg DNA per 6 cm Petri dish using the calcium phosphate co-precipitation method and were used within 24–96 h after transfection. Recordings were performed on inside-out patches excised from HEK293T cells expressing the construct of interest. Patch pipettes were pulled from borosilicate glass capillaries (O.D. 1.5 mm, I.D. 0.86 mm, Sutter Instrument) and were fire-polished with a microforge (Narishige) before use. Pipette resistance was typically 3–8 MΩ when filled with the recording solutions detailed below. Seal resistance was typically 4 GΩ or higher. Voltage-clamp recordings were made using Axopatch 200B, Digidata 1550, and Clampex 10.7 (Molecular Devices). Analog signals were filtered with the in-built 4-pole Bessel filter at 10 kHz and were digitized at 20 kHz. Solution exchange was achieved using a gravity-fed system through a theta glass pipette mounted on an ultra-fast piezo-driven stepper (Siskiyou). […] All recordings were performed at 20 °C.
A symmetrical ionic condition was used throughout. Stock solution with Ca^2+-EGTA contained 150 mM NaCl, 5.99 mM Ca(OH)2, 5 mM EGTA, and 10 mM HEPES at pH 7.40. Stock solution with EGTA contained 150 mM NaCl, 5 mM EGTA, and 10 mM HEPES at pH 7.40. Free Ca^2+ concentrations were adjusted by mixing the stock solutions at the required ratios calculated using the WEBMAXC program (http://web.stanford.edu/~cpatton/webmaxcS.htm). Patch pipettes were filled with the stock solution with Ca^2+-EGTA, which has a free Ca^2+ concentration of 1 mM. 1PBC (ChemBridge) stock was reconstituted in anhydrous DMSO (Sigma-Aldrich) at 100 mM and stored at −20 °C. Working solutions with 1PBC were prepared by serial dilution. Unless otherwise stated, experiments were performed at a saturating Ca^2+ concentration as shown in Supplementary Table 1 and the primary data were corrected for current rundown as described previously[21],[25].
Concentration-response relations, obtained from the ratio of the I-V plots before and after the application of the blocker, were fitted to the Hill equation,1 I/Imax=1/1+IC50/[blocker]^h where I/Imax is the normalized current responses, IC50 defines the concentration at which inhibition is at its half-maximum, and h is the Hill coefficient.

[1] = 100 µM 1PBC, -100 mV, 2 µM Ca2+
[2] = 100 µM 1PBC, -120 mV, 2 µM Ca2+
[3] = 100 µM 1PBC, -140 mV, 2 µM Ca2+

## N#Cc1c(C(F)(F)F)cc(O)n2c1nc1ccccc12 [1PBC]
10 µM 1PBC, -60 mV, 2 µM Ca2+
  Steady-state current (normalized): -0.2628
  remaining activity at 10 µM: 45.4%
10 µM 1PBC, -80 mV, 2 µM Ca2+
  Steady-state current (normalized): -0.388
  remaining activity at 10 µM: 50.6%
10 µM 1PBC, -100 mV, 2 µM Ca2+
  Steady-state current (normalized): -0.5211
  remaining activity at 10 µM: 54.8%
10 µM 1PBC, -120 mV, 2 µM Ca2+
  Steady-state current (normalized): -0.6616
  remaining activity at 10 µM: 59.1%
10 µM 1PBC, -140 mV, 2 µM Ca2+
  Steady-state current (normalized): -0.7984
  remaining activity at 10 µM: 62.2%
30 µM 1PBC, 0 mV, 2 µM Ca2+
  Steady-state current (normalized): 0.0002811
  remaining activity at 30 µM: 11.5%
30 µM 1PBC, 400 nM Ca2+, 80 mV
  I/Imax scaled to open probability: 0.04177
30 µM 1PBC, 800 nM Ca2+, 80 mV
  I/Imax scaled to open probability: 0.04061
30 µM 1PBC, 2 µM Ca2+, 80 mV
  I/Imax scaled to open probability: 0.05533
30 µM 1PBC, 20 mV, 2 µM Ca2+
  Steady-state current (normalized): 0.01874
  remaining activity at 30 µM: 9.63%
30 µM 1PBC, 40 mV, 2 µM Ca2+
  Steady-state current (normalized): 0.03065
  remaining activity at 30 µM: 8.13%
30 µM 1PBC, 60 mV, 2 µM Ca2+
  Steady-state current (normalized): 0.03882
  remaining activity at 30 µM: 7.03%
30 µM 1PBC, 80 mV, 2 µM Ca2+
  Steady-state current (normalized): 0.04513
  remaining activity at 30 µM: 6.38%
30 µM 1PBC, 100 mV, 2 µM Ca2+
  Steady-state current (normalized): 0.0498
  remaining activity at 30 µM: 5.86%
30 µM 1PBC, 120 mV, 2 µM Ca2+
  Steady-state current (normalized): 0.05715
  remaining activity at 30 µM: 5.87%
30 µM 1PBC, 140 mV, 2 µM Ca2+
  Steady-state current (normalized): 0.0661
  remaining activity at 30 µM: 6.08%
30 µM 1PBC, -20 mV, 2 µM Ca2+
  Steady-state current (normalized): -0.02579
  remaining activity at 30 µM: 13.4%
30 µM 1PBC, -40 mV, 2 µM Ca2+
  Steady-state current (normalized): -0.06545
  remaining activity at 30 µM: 16.9%
30 µM 1PBC, -60 mV, 2 µM Ca2+
  Steady-state current (normalized): -0.1171
  remaining activity at 30 µM: 20.2%
30 µM 1PBC, -80 mV, 2 µM Ca2+
  Steady-state current (normalized): -0.1843
  remaining activity at 30 µM: 24%
30 µM 1PBC, -100 mV, 2 µM Ca2+
  Steady-state current (normalized): -0.264
  remaining activity at 30 µM: 27.8%
30 µM 1PBC, -120 mV, 2 µM Ca2+
  Steady-state current (normalized): -0.3545
  remaining activity at 30 µM: 31.7%
30 µM 1PBC, -140 mV, 2 µM Ca2+
  Steady-state current (normalized): -0.4476
  remaining activity at 30 µM: 34.8%
100 µM 1PBC, 0 mV, 2 µM Ca2+
  Steady-state current (normalized): 0.0001085
  remaining activity at 100 µM: 4.44%
100 µM 1PBC, 400 nM Ca2+, 80 mV
  I/Imax scaled to open probability: 0.01539
100 µM 1PBC, 800 nM Ca2+, 80 mV
  I/Imax scaled to open probability: 0.01603
100 µM 1PBC, 2 µM Ca2+, 80 mV
  I/Imax scaled to open probability: 0.02162
100 µM 1PBC, 20 mV, 2 µM Ca2+
  Steady-state current (normalized): 0.006925
  remaining activity at 100 µM: 3.56%
100 µM 1PBC, 40 mV, 2 µM Ca2+
  Steady-state current (normalized): 0.0112
  remaining activity at 100 µM: 2.97%
100 µM 1PBC, 60 mV, 2 µM Ca2+
  Steady-state current (normalized): 0.0148
  remaining activity at 100 µM: 2.68%
100 µM 1PBC, 80 mV, 2 µM Ca2+
  Steady-state current (normalized): 0.01763
  remaining activity at 100 µM: 2.49%
100 µM 1PBC, 100 mV, 2 µM Ca2+
  Steady-state current (normalized): 0.02038
  remaining activity at 100 µM: 2.4%
100 µM 1PBC, 120 mV, 2 µM Ca2+
  Steady-state current (normalized): 0.024
  remaining activity at 100 µM: 2.47%
100 µM 1PBC, 140 mV, 2 µM Ca2+
  Steady-state current (normalized): 0.02832
  remaining activity at 100 µM: 2.6%
100 µM 1PBC, -20 mV, 2 µM Ca2+
  Steady-state current (normalized): -0.01026
  remaining activity at 100 µM: 5.33%
100 µM 1PBC, -40 mV, 2 µM Ca2+
  Steady-state current (normalized): -0.02602
  remaining activity at 100 µM: 6.7%
100 µM 1PBC, -60 mV, 2 µM Ca2+
  Steady-state current (normalized): -0.04778
  remaining activity at 100 µM: 8.25%
100 µM 1PBC, -80 mV, 2 µM Ca2+
  Steady-state current (normalized): -0.07707
  remaining activity at 100 µM: 10%
[1]
  Steady-state current (normalized): -0.1118
  remaining activity at 100 µM: 11.8%
[2]
  Steady-state current (normalized): -0.1551
  remaining activity at 100 µM: 13.9%
[3]
  Steady-state current (normalized): -0.2042
  remaining activity at 100 µM: 15.9%
20 mV, 2 µM Ca2+
  IC50: 3.42 µM
40 mV, 2 µM Ca2+
  IC50: 2.77 µM
60 mV, 2 µM Ca2+
  IC50: 2.32 µM
80 mV, 2 µM Ca2+
  IC50: 2.06 µM
100 mV, 2 µM Ca2+
  IC50: 2 µM
120 mV, 2 µM Ca2+
  IC50: 2.1 µM
140 mV, 2 µM Ca2+
  IC50: 2.41 µM
-20 mV, 2 µM Ca2+
  IC50: 5.63 µM
-40 mV, 2 µM Ca2+
  IC50: 7.34 µM
-60 mV, 2 µM Ca2+
  IC50: 9.2 µM
-80 mV, 2 µM Ca2+
  IC50: 11.6 µM
-100 mV, 2 µM Ca2+
  IC50: 14.1 µM
-120 mV, 2 µM Ca2+
  IC50: 17.2 µM
-140 mV, 2 µM Ca2+
  IC50: 19.9 µM
TMEM16A and TMEM16B blocked, TMEM16F current not
  Selectivity for anion channels of the TMEM16 family over the scramblase TMEM16F: selective for anion channels of the TMEM16 family over the scramblase TMEM16F
Functional experiments
  Electrical distance of 1PBC block: 0.2-0.25
Neutral pH, implied from block from the extracellular side after intracellular application
  Membrane permeability: freely membrane-permeable
Zero mV, saturating Ca2+ concentration (2 µM), applied from the intracellular side
  IC50: ~4 µM
